{"source": "patent US8647824B2", "about": "“Microbial reductive dehalogenation of vinyl chloride” (The Board of Trustees of the Leland Stanford Junior …, priority 2004, dated 2014)", "molecules": {"B1": {"name": "VC reductive dehalogenase: VC reductive dehalogenase partially purified from Dehalococcoides sp. strain VS; corrinoid/iron-sulfur cluster reductive dehalogenase (protein)", "chain": "MSKFHKTISRRDFMKGLGLAGAGIGAVAASAPVFHDIDELVSSEANSTKDQPWYVKHREHFDPTITVDWDIFDRYDGYQHKGVYEGPPDAPFTSWGNRLQVRMSGEEQKKRILAAKKERFPGWDGGLHGRGDQRADALFYAVTQPFPGSGEEGHGLFQPYPDQPGKFYARWGLYGPPHDSAPPDGSVPKWEGTPEDNFLMLRAAAKYFGAGGVGALNLADPKCKKLIYKKAQPMTLGKGTYSEIGGPGMIDAKIYPKVPDHAVPINFKEADYSYYNDAEWVIPTKCESIFTFTLPQPQELNKRTGGIAGAGSYTVYKDFARVGTLVQMFIKYLGYHALYWPIGWGPGGCFTTFDGQGEQGRTGAAIHWKFGSSQRGSERVITDLPIAPTPPIDAGMFEFCKTCYICRDVCVSGGVHQEDEPTWDSGNWWNVQGYLGYRTDWSGCHNQCGMCQSSCPFTYLGLENASLVHKIVKGVVANTTVFNSFFTNMEKALGYGDLTMENSNWWKEEGPIYGFDPGT", "modifications": "partially purified native enzyme; Dehalococcoides sp. VS"}}, "key": {"[1]": {"test_system": "Victoria mixed culture, containing strain VS", "experiment": "Batch dechlorination and growth kinetics, Victoria mixed culture", "format": "cell-based, Dehalococcoides species strain VS", "description": "(§1) Stock cultures. The Victoria mixed culture, containing strain VS, was maintained in a closed continuously stirred tank reactor (CSTR) as previously described. A VC enrichment of this culture, maintained over 5 years, was also used in these investigations. Liquid cultures of the three other cultures evaluated (Pinellas, KB-1/VC, and Dehalococcoides ethenogenes strain 195) were kept in anaerobic bottles, stored in an anaerobic chamber (10% H2, 10% CO2, 80% N2). The bottles were amended with TCE (1-3 μL neat liquid), VC (250 μL gas), and PCE (1-3 μL neat liquid) being added to each, respectively, approximately every two weeks.\n(§2) Batch studies. For the experimental portion of this research, two studies were undertaken, one a comparative VC growth study, and the other a comparative growth and substrate utilization study with different chlorinated ethenes. These studies compared the dechlorination abilities of Dehalococcoides ethenogenes strain 195 and the Dehalococcoides-like microorganisms in the three mixed cultures (Victoria, KB-1/VC, and Pinellas).\n(§3) For the first study, a VC enriched inoculum was first developed for each of the three mixed cultures. Here, bottles (120 mL) were filled with 60 mL of anaerobic media in an anaerobic chamber as previously described, and inoculated with 200 μL of each stock culture. Gaseous VC (99.5%) was added with a gas tight syringe (200 μL). The cultures were then moved to a shaker (60-80 rpm) in an anaerobic chamber (20±2° C.). Immediately after 5 μmol of ethene was formed in a bottle, 200 μL of the culture was transferred to fresh media (60 mL), in triplicate, and VC was again added (200 μL). The inoculum for the growth study was that formed after exactly 4 μmol of ethene was produced following this second transfer. To compare growth rates on VC, a range in concentration of each inocula (0.1, 0.3, 1, 3, 9 mL) was transferred to fresh media (as above) to result in a liquid volume of 60 mL, and gaseous VC (200 μL) was added to each. […] Hydrogen served as the electron donor and was non-limiting (>3%) in all studies. Headspace samples were periodically removed by syringe (250 μL) for chlorinated ethene analyses.\n(§4) The purpose of the second study was to compare dechlorination rates of PCE, TCE and DCE between the three different cultures that grew on VC (Victoria, KB-1/VC and Pinellas). The development of inocula here was performed with VC, just as in the first study. For the growth and substrate utilization experiments, triplicate bottles were set up for each culture containing 1 mL of inoculum and either neat PCE (0.4 μL), neat TCE (0.3 μL), saturated DCE solution (34 μL) or gaseous VC (200 μL). To further investigate TCE removal, bottles (120 mL) were filled with 20 mL of a highly enriched culture of strain VS made from the Victoria culture. Duplicate bottles were supplied with gaseous VC (50 μL on day 0, then 150 μL on day 3) or TCE (0.4 μL neat liquid). Dechlorination was followed until all VC or TCE was converted to ethene (day 12). The change in strain VS concentration during VC and TCE utilization was then determined both by competitive PCR and by an activity procedure evaluated previously for strain VS. In the activity procedure a non-growth limiting concentration of VC (150 μL) along with excess hydrogen is added to a culture and the initial dechlorination rate is measured (over <1 day). A good estimate of strain VS concentration can then be obtained using the previously determined strain VS maximum VC utilization rate (7.8×10^−10 μmol Cl^− (cell·d)^−1). The increase in strain VS concentration during TCE or VC utilization was determined with these two procedures on the culture before and after TCE and VC utilization.\n(§5) Comparative dechlorination and growth kinetics. With mixed cultures, the concentration of organisms carrying out a particular reaction is generally unknown and difficult to determine. […]"}, "KB-1/VC culture": {"test_system": "KB-1/VC culture", "experiment": "Batch dechlorination and growth kinetics, KB-1/VC culture", "format": "cell-based, Dehalococcoides-like microorganisms", "description": "as §1, §2, §3, §4, §5"}, "Pinellas culture": {"test_system": "Pinellas culture", "experiment": "Batch dechlorination and growth kinetics, Pinellas culture", "format": "cell-based, Dehalococcoides-like microorganisms", "description": "as §1, §2, §3, §4, §5"}, "[2]": {"test_system": "Dehalococcoides ethenogenes strain 195", "experiment": "Batch dechlorination, D. ethenogenes strain 195 culture", "format": "cell-based", "settings": "cultures supplied with VC or DCE", "description": "as §1, §2\nFor the first study, a VC enriched inoculum was first developed for each of the three mixed cultures. Here, bottles (120 mL) were filled with 60 mL of anaerobic media in an anaerobic chamber as previously described, and inoculated with 200 μL of each stock culture. Gaseous VC (99.5%) was added with a gas tight syringe (200 μL). […]"}, "[3]": {"test_system": "VC reductive dehalogenase of Dehalococcoides sp. strain VS", "experiment": "VC-reduction enzyme assay with Ti(III)-reduced methyl viologen as electron donor, gas chromatography", "format": "biochemical", "method": "Enzyme assays. Cells were harvested by centrifugation (20,000 g, 20 min, 4° C.) under strictly anoxic conditions using the anoxic chamber, washed and resuspended in degassed MOPS buffer (20 mM, pH 7.2) supplemented with 2 mM DTE and 0.2 mM titanium(III)NTA (buffer A). The buffer was incubated overnight in the anoxic chamber before addition of reducing agents. Cell-free extracts were obtained by anoxic disruption of cells by French Press treatment (138 MPa; two passages), followed by two centrifugation steps (30,000×g, 15 min, 4° C.).\nAssays of VC-reduction were conducted as described previously in 2-ml glass vials under an N2/H2 atmosphere with Ti(III)-reduced methyl viologen as artificial electron donor (Rosner et al.) The protein concentration in the assay varied between 10 and 100 μg/ml. The test was started by addition of gaseous VC to the assay mix (total aqueous volume 0.3 ml), and change in VC and ethene concentrations were followed with time by gas chromatography. Experiments testing for reduction of liquid chlorinated ethenes (PCE, TCE, DCE-isomers) were carried out essentially as described above with the appropriate substitution of the chlorinated ethene. The chlorinated compounds were added from aqueous stock solutions.\nOxygen sensitivity of VC-reducing activity in cell-free extract was investigated in buffer amended with resazurin as redox indicator. Prior to addition of VC, the assay was exposed to air until the resazurin underwent a color-change from colorless to pink. Subsequently, the assay was rendered anoxic again by exchanging the gas phase inside the anoxic chamber followed by addition of Ti(III)NTA (5 mM final concentration). All enzyme assays were carried out at ambient temperature, and given activities are means of at least three independent measurements.\nPartial purification of VC reductase. Protein purification was performed at 4° C. in the anoxic chamber. The membrane fraction was obtained by centrifugation of cell-free extract at 100,000×g for 90 min at 4° C. The pellet was resuspended in 1 ml buffer A supplemented with 2 mM 3-[(3-cholamidopropyl)dimethylammonio]-1-propanesulfonic acid (CHAPS), and incubated for 1 h on ice. After subsequent centrifugation (100,000×g, 90 min, 4° C.) the solubilized membrane fraction was diluted with an equal volume of buffer B (50 mM 1,3-Bis[tris(hydroxymethyl)methylamino]propane (Bis-Tris Propane), pH 9.6, 2 mM dithiothreitol, 0.2 mM titanium(III)NTA, 20 mM CHAPS), and loaded on a 1-ml HighTrap Q column (Amersham Pharmacia) equilibrated with buffer C (same as buffer B but with 2 mM CHAPS). VC reductive dehalogenase activity was eluted as a single peak (at 550 to 580 mM NaCl) with 10 ml buffer C followed by a 40-ml linear gradient from 0-700 mM NaCl in buffer C at a flow of 1 ml/min. Fractions containing the highest activity were pooled and mixed with an equal volume of buffer A containing 20 mM CHAPS, and applied to a Superose-6 column equilibrated with the same buffer. Enzyme activity was eluted with buffer A at a flow rate of 0.2 ml/min. The protein concentration of the samples was determined according to Bradford with bovine serum albumin as a standard."}}, "note": "Several values for one entry are separate records, joined by “and”; a condition that tells them apart may be missing. Equal entries are not always repeated."}
{"molecule": "Cl/C=C\\Cl", "note": "[DCE, cis-1,2-dichloroethene]", "values": [{"measurement": "Maximum Growth Rate", "setting": "[1]; VS Mixed (Victoria) culture, 95% confidence interval, least-squares model fit", "result": "0.46 ± 0.04", "unit": "day⁻¹"}, {"measurement": "Maximum Growth Rate", "setting": "KB-1/VC culture; 95% confidence interval", "result": "0.44 ± 0.02", "unit": "day⁻¹"}, {"measurement": "Maximum Growth Rate", "setting": "Pinellas culture; 95% confidence interval", "result": "0.43 day⁻¹ and 0.43 ± 0.00 day⁻¹"}, {"measurement": "dechlorination by D. ethenogenes strain 195", "setting": "[2]", "result": "did dechlorinate DCE to VC"}]}
{"molecule": "ClC(Cl)=C(Cl)Cl", "note": "[PCE, tetrachloroethene]", "values": [{"measurement": "transformation during the course of the enzyme assay", "setting": "[3]; 2 h", "result": "not transformed"}, {"measurement": "effect on the reduction rate of VC", "setting": "[3]; saturating concentrations of PCE or TCE present", "result": "not affected"}, {"measurement": "lag period before PCE dechlorination", "setting": "[1]; Victoria mixed culture", "result": "6 to 12", "unit": "days"}, {"measurement": "PCE dechlorination", "setting": "KB-1/VC culture", "result": "failed to dechlorinate"}, {"measurement": "PCE dechlorination", "setting": "Pinellas culture", "result": "failed to dechlorinate"}]}
{"molecule": "B1", "values": [{"measurement": "Sp act (VC reduction)", "setting": "[3]; step: Anionic exchange chromotagraphy", "result": 638, "unit": "mU/mg protein"}, {"measurement": "Sp act (VC reduction)", "setting": "[3]; step: Cell-free extract, 1 mU = 1 nmol VC per minute", "result": 220, "unit": "mU/mg protein"}, {"measurement": "Sp act (VC reduction)", "setting": "[3]; step: Gelfiltration", "result": 990, "unit": "mU/mg protein"}, {"measurement": "Sp act (VC reduction)", "setting": "[3]; step: Membrane fraction", "result": 346, "unit": "mU/mg protein"}, {"measurement": "Sp act (VC reduction)", "setting": "[3]; step: Solubilized membrane fraction", "result": 308, "unit": "mU/mg protein"}]}
